Measured values as given in US8859620B2, “Phthalanilate compounds and methods of use” (University of Notre Dame du Lac, priority 2009, dated 2014).
In brackets after ≈: the same amount, converted by molar mass.

Legend:
PBP2a = PBP2a (Staphylococcus aureus, UniProt P07944); experiment: PBP2 assay (Villegas-Esterada et al.); format: biochemical; details: Table 10
Description: (§1) β-Lactamase Assays (TEM-1, P99, and OXA-10): The activity of the compounds of the invention (inhibitors) toward β-lactamases was evaluated using 96 well plates. The reaction mixture included 10 mM sodium phosphate, pH 7.0, 150 mM sodium chloride, 0.01% Triton X-100, 100 μM nitrocefin, 10 nM of β-lactamases (class A: TEM-1; class C: P99, or class D: OXA-10), and variable concentrations of the inhibitors in a total volume of 100 μL. β-Lactamases were pre-incubated with the compounds at room temperature for 5 minutes, and the assay was initiated by the addition of nitrocefin. The inhibition of the enzyme activity by the compounds was determined by monitoring color change (from yellow to red) of nitrocefin after 20 minutes. Stock solutions of the compounds were prepared in dimethyl sulfoxide (DMSO). No more than 5% DMSO was present in assays, unless noted otherwise. B1aR Assay: The surface domain of B1aR (1 μM) was added to each inhibitor (at various concentrations) in 100 mM sodium phosphate, 50 mM sodium bicarbonate, at pH 7.0. The reaction mixtures were incubated at room temperature for 20 minutes. BOCILLIN FL, a fluorogenic ligand, was added to a concentration of 20 μM in a final volume of 20 μL. The mixtures were incubated at 37° C. for 5 minutes, at which point the reactions were quenched by the addition of 15 μL of the SDS sample buffer (125 mM Tris, 4% SDS, 20% glycerol, 2% 2-mercaptoethanol, pH 6.8), and were boiled for 4 minutes. The samples were loaded onto 15% SDS-PAGE, the gel was developed and scanned using a Storm 840® Fluorimager. The fluorescent bands of BOCILLIN FL-labeled B1aR^S were analyzed by Image Quant 5.2 software. PBP2 Assay: The PBP2 assay was performed according to the methods of Villegas-Esterada et al. (J. Am. Chem. Soc. 2008, 130, 9212-9213).

[1] = target: TEM-1 (class A β-lactamase) (Escherichia coli, UniProt P62593); experiment: β-Lactamase assay (nitrocefin colour change), TEM-1; format: biochemical; details: for TEM-1: Table 10, class symbols x/xx/xxx, key not given
Chain of TEM-1 (class A β-lactamase) (P62593 24-286 limits assumed): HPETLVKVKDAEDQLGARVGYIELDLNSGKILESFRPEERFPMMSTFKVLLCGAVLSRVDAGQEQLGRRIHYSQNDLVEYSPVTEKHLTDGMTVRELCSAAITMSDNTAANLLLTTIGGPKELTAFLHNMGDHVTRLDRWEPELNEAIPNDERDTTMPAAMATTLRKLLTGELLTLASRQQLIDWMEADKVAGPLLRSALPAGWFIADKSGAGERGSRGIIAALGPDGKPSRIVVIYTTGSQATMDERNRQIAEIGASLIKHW
Description: as §1

[2] = target: P99 (class C β-lactamase) (Enterobacter cloacae, UniProt P05364); experiment: β-Lactamase assay (nitrocefin colour change), P99; format: biochemical; details: for P99: Table 10, class symbols x/xx/xxx, key not given; for IC50: nitrocefin 100 μM, 10 nM enzyme, 5 min pre-incubation, read-out: IC50s P99
Chain of P99 (class C β-lactamase) (P05364 21-381): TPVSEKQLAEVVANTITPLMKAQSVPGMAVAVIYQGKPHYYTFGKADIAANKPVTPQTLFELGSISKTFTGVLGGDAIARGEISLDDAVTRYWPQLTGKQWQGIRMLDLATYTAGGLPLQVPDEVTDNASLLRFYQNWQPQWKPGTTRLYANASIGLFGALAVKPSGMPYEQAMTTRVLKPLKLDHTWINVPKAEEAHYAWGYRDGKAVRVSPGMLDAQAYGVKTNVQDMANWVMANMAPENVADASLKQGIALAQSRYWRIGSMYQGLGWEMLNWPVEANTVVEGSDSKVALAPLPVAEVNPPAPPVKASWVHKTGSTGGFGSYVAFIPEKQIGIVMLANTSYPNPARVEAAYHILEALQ
Description: as §1

[3] = target: OXA-10 (class D β-lactamase) (Pseudomonas aeruginosa, UniProt P14489); experiment: β-Lactamase assay (nitrocefin colour change), OXA-10; format: biochemical; details: for OXA-10: Table 10, class symbols x/xx/xxx, key not given; for IC50: nitrocefin 100 μM, 10 nM enzyme, 5 min pre-incubation, read-out: IC50s OXA-10
Chain of OXA-10 (class D β-lactamase) (P14489 20-266, species assumed): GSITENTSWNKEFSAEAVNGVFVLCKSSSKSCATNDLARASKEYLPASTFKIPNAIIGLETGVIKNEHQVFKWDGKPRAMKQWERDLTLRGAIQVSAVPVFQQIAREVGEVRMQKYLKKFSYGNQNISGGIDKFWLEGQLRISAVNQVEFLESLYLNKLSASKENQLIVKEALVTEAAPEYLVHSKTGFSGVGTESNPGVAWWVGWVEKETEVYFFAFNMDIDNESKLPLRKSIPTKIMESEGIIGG
Description: as §1

surface domain of B1aR = surface domain of B1aR (Staphylococcus aureus, UniProt P18357); experiment: B1aR assay (BOCILLIN FL labeling, SDS-PAGE); format: binding, Staphylococcus aureus (MRSA); details: Table 10; class symbols x/xx/xxx, key not given
Chain of surface domain of B1aR (P18357 331-585): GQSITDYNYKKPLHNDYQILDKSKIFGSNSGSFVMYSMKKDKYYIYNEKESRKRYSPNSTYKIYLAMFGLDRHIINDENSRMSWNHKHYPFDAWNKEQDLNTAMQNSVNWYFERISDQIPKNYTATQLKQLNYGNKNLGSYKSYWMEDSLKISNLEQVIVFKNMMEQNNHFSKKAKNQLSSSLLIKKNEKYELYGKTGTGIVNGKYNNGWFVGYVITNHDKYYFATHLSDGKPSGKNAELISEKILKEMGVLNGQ
Description: as §1

S. aureus NRS100 (Mec^R) = experiment: MIC against S. aureus NRS100 (Table 14); format: cell-based, Staphylococcus aureus; details: for MIC: Staphylococcus aureus, compounds dissolved in DMSO or 1% sodium carbonate, read-out: MIC; for inhibitory activity (in words): Table 14
Description: The recited compounds were dissolved in DMSO or in 1% sodium carbonate and transferred into micro titer plate to final concentration of 1000 μg/mL.

[4] = tested on: methicillin-resistant strains of S. aureus; experiment: MIC against methicillin-resistant S. aureus (Table 15); format: cell-based; details: Staphylococcus aureus, dissolved in 100% DMSO, diluted into Mueller Hinton II Broth to final 16 μg/mL
From the text: Table 15 illustrates the inhibition of methicillin-resistant strains of S. aureus by selected compounds of the invention.

S. aureus NRS11 (Mec^S) = experiment: MIC against S. aureus NRS11 (Table 13); format: cell-based, Staphylococcus aureus; details: for MIC: Staphylococcus aureus, compounds dissolved in DMSO or 1% sodium carbonate, read-out: MIC; for inhibitory properties (in words): Table 13
Description: All recited compounds were dissolved in DMSO or in 1% sodium carbonate and transferred to micro titer plates to final concentrations of 1000 μg/mL.

Chain of PBP2a (P07944 whole entry): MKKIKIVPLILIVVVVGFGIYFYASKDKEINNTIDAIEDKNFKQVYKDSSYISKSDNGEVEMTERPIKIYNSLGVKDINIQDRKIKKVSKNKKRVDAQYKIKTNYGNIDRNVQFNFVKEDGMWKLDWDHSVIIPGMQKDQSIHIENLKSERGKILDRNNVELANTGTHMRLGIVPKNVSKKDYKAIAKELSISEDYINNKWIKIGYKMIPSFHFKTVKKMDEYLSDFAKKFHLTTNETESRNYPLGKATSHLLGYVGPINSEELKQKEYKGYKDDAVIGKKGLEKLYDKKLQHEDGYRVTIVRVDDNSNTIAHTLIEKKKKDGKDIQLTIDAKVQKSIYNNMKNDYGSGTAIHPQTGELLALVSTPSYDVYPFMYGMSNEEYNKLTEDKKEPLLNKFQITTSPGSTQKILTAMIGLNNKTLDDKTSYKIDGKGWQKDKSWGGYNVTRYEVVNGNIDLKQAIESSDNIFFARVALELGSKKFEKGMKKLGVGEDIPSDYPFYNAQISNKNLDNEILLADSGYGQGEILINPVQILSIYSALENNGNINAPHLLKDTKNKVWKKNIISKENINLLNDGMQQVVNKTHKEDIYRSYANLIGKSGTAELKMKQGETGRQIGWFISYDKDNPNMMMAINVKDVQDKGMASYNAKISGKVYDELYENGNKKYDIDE

| SMILES | TEM-1 [1] | P99 [2] | OXA-10 [3] | BlaR (surface domain of B1aR) | MIC (S. aureus NRS100 (Mec^R)) | other results |
| --- | --- | --- | --- | --- | --- | --- |
| CCC(CO)NC(=O)C1=C(C(=O)O)SCCS1 (stereo not shown) [Compound 126] | – | – | – | – | – | PBP2a* (inhibitory concentration) (PBP2a): xx |
| O=C(O)C1=C(C(=O)N[C@@H](CO)[C@@H](O)c2ccccc2)SCCS1 [Compound 127] | – | – | – | – | – | PBP2a* (inhibitory concentration) (PBP2a): xx |
| O=C(O)c1c(Br)c(Br)c(Br)c(Br)c1C(=O)Nc1ccc(Oc2ccccc2)cc1 [Compound 222] | – | – | – | – | – | PBP2a* (inhibitory concentration) (PBP2a): xx |
| CCCCCCCCOc1ccc(NC(=O)c2ccccc2C(=O)O)cc1 [Compound 270] | xxx | xxx | xxx | xx | – | – |
| CCCCCCCCOc1ccc(NC(=O)c2c(F)c(F)c(F)c(F)c2C(=O)O)cc1 [Compound 271] | xxx | xxx | xxx | xxx | – | – |
| CCCCCCCCCCCCCCCCOc1ccc(NC(=O)c2c(F)c(F)c(F)c(F)c2C(=O)O)cc1 [Compound 289] | – | xx | xxx | xxx | – | IC50 [1]: 23.1 ± 2.4 µM; IC50 [2]: 1.2 ± 0.1 µM; IC50 [3]: 0.7 ± 0.15 µM |
| CCCCCCCCCCCCCCCCOc1ccc(NC(=O)c2c(Cl)c(Cl)c(Cl)c(Cl)c2C(=O)O)cc1 [Compound 290] | – | xxx | xxx | xxx | – | IC50 [1]: 0.6 ± 0.06 µM; IC50 [2]: 0.4 ± 0.06 µM; IC50 [3]: 0.5 ± 0.05 µM |
| CCCCCCCCCCCCCCCCOc1ccc(NC(=O)c2c(Br)c(Br)c(Br)c(Br)c2C(=O)O)cc1 [Compound 291] | xxx | xxx | xxx | xx | – | IC50 [1]: 0.2 ± 0.04 µM; IC50 [2]: 0.2 ± 0.02 µM; IC50 [3]: 0.3 ± 0.06 µM |
| CCCCCCCCOc1ccc(NC(=O)c2c(F)c(F)c(F)c(F)c2C(=O)O)cc1Cl [Compound 301] | xx | xxx | xxx | xxx | 16 µg/mL (≈ 33.6 µM) | IC50 [1]: 5.1 ± 1 µM; IC50 [2]: 9.9 ± 1.7 µM; IC50 [3]: 23 ± 2 µM; PBP2a* (inhibitory concentration) (PBP2a): xxx |
| CCCCCCCCOc1ccc(NC(=O)c2c(Cl)c(Cl)c(Cl)c(Cl)c2C(=O)O)cc1Cl [Compound 302] | – | – | – | – | 4 µg/mL (≈ 7.38 µM) | MIC [4]: 4 µg/mL (≈ 7.38 µM) |
| CCCCCCCCCCOc1ccc(N(C)C(=O)c2c(Br)c(Br)c(Br)c(Br)c2C(=O)O)cc1 [Compound 316] | – | – | – | xx | – | – |
| CCCCCCCCCCOc1ccc(N(C)C(=O)c2ccccc2C(=O)O)cc1 [Compound 318] | – | – | – | xxx | – | – |
| CCCCCCCCCCOc1ccc(N(C)C(=O)c2c(F)c(F)c(F)c(F)c2C(=O)O)cc1 [Compound 319] | – | – | – | xxx | – | – |
| CCCCCCCCCCOc1ccc(NC(=O)c2c(Br)c(Br)c(Br)c(Br)c2C(=O)O)cc1 [Compound 329] | – | – | – | xxx | – | – |
| CCCCCCCCOc1ccc(NC(=O)c2c(Cl)c(Cl)c(Cl)c(Cl)c2C(=O)O)cn1 [Compound 345] | xxx | xxx | xxx | – | 16 µg/mL (≈ 31.5 µM) | IC50 [1]: 4.9 ± 0.2 µM; IC50 [2]: 27.8 ± 2.9 µM; IC50 [3]: 37.9 ± 6 µM; MIC (S. aureus NRS11 (Mec^S)): 16 µg/mL (≈ 31.5 µM); inhibitory properties (in words) (S. aureus NRS11 (Mec^S)): significant inhibitory properties; inhibitory activity (in words) (S. aureus NRS100 (Mec^R)): significant inhibitory activity; MIC [4]: 16 µg/mL (≈ 31.5 µM) |
| CC(Oc1ccc(NC(=O)c2c(Cl)c(Cl)c(Cl)c(Cl)c2C(=O)O)cc1Cl)c1ccccc1 (stereo not shown) [Compound 381] | – | – | xxx | – | 32 µg/mL (≈ 60 µM) | MIC (S. aureus NRS11 (Mec^S)): 16 µg/mL (≈ 30 µM); inhibitory properties (in words) (S. aureus NRS11 (Mec^S)): significant inhibitory properties; inhibitory activity (in words) (S. aureus NRS100 (Mec^R)): significant inhibitory activity |
| CC(Oc1ccc(NC(=O)c2c(Br)c(Br)c(Br)c(Br)c2C(=O)O)cc1Cl)c1ccccc1 (stereo not shown) [Compound 382] | xxx | xxx | xxx | – | < 8 µg/mL | IC50 [1]: 5.3 ± 1.1 µM; IC50 [2]: 24.4 ± 1.9 µM; IC50 [3]: 26.6 ± 1.6 µM; PBP2a* (inhibitory concentration) (PBP2a): xxx; MIC (S. aureus NRS11 (Mec^S)): < 8 µg/mL; inhibitory activity (in words) (S. aureus NRS100 (Mec^R)): significant inhibitory activity |
| Cc1ccccc1COc1ccc(NC(=O)c2c(Cl)c(Cl)c(Cl)c(Cl)c2C(=O)O)cc1Cl [Compound 385] | xx | xx | xxx | – | 16 µg/mL (≈ 30 µM) | PBP2a* (inhibitory concentration) (PBP2a): xxx; MIC (S. aureus NRS11 (Mec^S)): 16 µg/mL (≈ 30 µM); inhibitory properties (in words) (S. aureus NRS11 (Mec^S)): significant inhibitory properties; inhibitory activity (in words) (S. aureus NRS100 (Mec^R)): significant inhibitory activity |
| O=C(O)c1ccccc1C(=O)Nc1ccc(OCc2cccc(C(F)(F)F)c2)c(Cl)c1 [Compound 387] | – | – | – | xx | – | – |
| O=C(O)c1c(F)c(F)c(F)c(F)c1C(=O)Nc1ccc(OCc2cccc(C(F)(F)F)c2)c(Cl)c1 [Compound 388] | xx | – | xx | – | 128 µg/mL (≈ 245 µM) | MIC (S. aureus NRS11 (Mec^S)): 128 µg/mL (≈ 245 µM) |
| O=C(O)c1c(Cl)c(Cl)c(Cl)c(Cl)c1C(=O)Nc1ccc(OCc2cccc(C(F)(F)F)c2)c(Cl)c1 [Compound 389] | xxx | xxx | xxx | – | < 8 µg/mL | IC50 [1]: 4.5 ± 0.4 µM; IC50 [2]: 20.2 ± 3 µM; IC50 [3]: 44.2 ± 3.4 µM; MIC (S. aureus NRS11 (Mec^S)): < 8 µg/mL; inhibitory properties (in words) (S. aureus NRS11 (Mec^S)): significant inhibitory properties; inhibitory activity (in words) (S. aureus NRS100 (Mec^R)): significant inhibitory activity |
| O=C(O)c1c(F)c(F)c(F)c(F)c1C(=O)Nc1ccc(Oc2cc(C(F)(F)F)cc(C(F)(F)F)c2)cc1 [Compound 412] | – | – | – | xx | – | – |
| O=C(O)c1ccccc1C(=O)Nc1ccc(OCc2cccc(OC(F)(F)F)c2)c(Cl)c1 [Compound 417] | – | – | – | xx | 250 µg/mL (≈ 537 µM) | – |
| O=C(O)c1c(F)c(F)c(F)c(F)c1C(=O)Nc1ccc(OCc2cccc(OC(F)(F)F)c2)c(Cl)c1 [Compound 418] | – | – | xx | xxx | 125 µg/mL (≈ 232 µM) | – |
| O=C(O)c1ccc([N+](=O)[O-])cc1C(=O)Nc1ccc(OCc2cccc(OC(F)(F)F)c2)c(Cl)c1 [Compound 422] | xx | xx | xx | xxx | 125 µg/mL (≈ 245 µM) | PBP2a* (inhibitory concentration) (PBP2a): xxx |
